Key:
[1] = system: zymosan A induced plasma leakage; experiment: Zymosan A induced plasma leakage in peritoneal fluid (Evans blue), intraperitoneal injection; format: in vivo, mice; conditions: i.p.
Method: The present inventors intraperitoneally injected docosahexaenoyl lysophosphatidylcholine or 17-HPDHA lysophosphatidylcholine (docosahexaenoyl lysophosphatidylcholine oxide) into mice at the concentration of 15˜150 μg/kg. The control group was injected with 50˜100 ul of saline. 2 Hours later, 0.5% Evans Blue dye solution (0.2 ml) was injected through tail vein, followed by intraperitoneal injection of 100 ul of zymosan A (1 mg/ml) dissolved in saline. 30 minutes later, the mice were slightly anesthetized with ether or fluorine, followed by neck dissection. 4 ml of ice-cold PBS was injected into abdominal cavity and peritoneal fluid was recovered by using a plastic syringe, followed by centrifugation (3,000 rpm, 10 minutes). Exudation of Evans blue was measured to evaluate anti-inflammatory effect.

[2] = system: zymosan A induced plasma leakage; experiment: Zymosan A induced plasma leakage in peritoneal fluid (Evans blue), intravenous injection; format: in vivo, mice
Method: To investigate inhibitory effect of docosahexaenoyl lysophosphatidylcholine on peritonitis induced by zymosan, the present inventors induced inflammation in abdominal cavity by injecting zymosan A (saccharomyces cerevisiae) (Sigma-Aldrich Corp, St. Louis, Mo., USA), and then administered lysophosphatidylcholine, followed by evaluation of anti-inflammatory effect. Particularly, SPF mice (6 weeks, male) were adapted for 12 hours and then raised in an animal laboratory at College of Pharmacy under 12/12 hour dark/light cycle. Then, the mice were used for intra-abdominal inflammatory response experiment. First, each experimental group was composed of 5˜10 mice, to which 10˜500 μg/kg of each lysophosphatidylcholine was injected through tail vein. The control group was injected with 50˜100 ul of saline. 30 minutes later, 0.5% Evans blue dye solution (0.2 ml) was injected through tail vein and then 100 ul of zymosan A (1 mg/ml) dissolved in saline was injected into abdominal cavity. 30 minutes after the administration, the mice were anesthetized lightly with ether or fluorine, followed by neck dissection. 4 ml of ice-cold PBS was injected into abdominal cavity and peritoneal fluid was recovered by using a plastic syringe, followed by centrifugation (3,000 rpm, 10 minutes). Supernatant was obtained from the centrifugation, with which exudation of Evans blue was measured by spectrophotometer at 620 nm to evaluate anti-inflammatory effect (Arita M, et al., Proc Natl Acad Sci USA. 2005 May 24; 102(21):7671-6; Takenaka M, et al., Biol Pharm Bull. 2005 July; 28(7):1291-3).
The present inventors measured time-dependent anti-inflammatory effect (inhibitory effect on zymosan A induced plasma leakage) of each lysophosphatidylcholine. Particularly, docosahexaenoyl lysophosphatidylcholine (50 μg/kg) was injected to mice through tail vein at different time intervals (15 minutes—120 minutes; […], 30 minutes, 60 minutes and 120 minutes before zymosan A administration). After administrating zymosan A ([…]) via intraperitoneal injection, Evans blue was treated, followed by measuring plasma leakage in peritoneal fluid.
Particularly, docosahexaenoyl lysophosphatidylcholine (50 μg/kg), docosahexaenoic acid (50 μg/kg) or 17-HPDHA lysophosphatidylcholine (17(S)-hydroperoxy-4,7,10,13,15,19-docosahexaenoyl lysophosphatidylcholine) were compared. Soybean LOX-1 (200 units/ml) was added in borax buffer (50 mM, pH 9.0) containing docosahexaenoyl lysophosphatidylcholine (20 uM), followed by reaction at 25° C. for 30 minutes, which was passed through C18 column (2×1 cm) and eluted with methanol (Huang L S, et al., J Agric Food Chem. 2008 Sep. 10; 56(17):7808-14)] (50 μg/kg) was treated to mice 30 minutes before zymosan A injection. 30 minutes later, plasma leakage in peritoneal fluid was measured.
The present inventors intravenously injected docosahexaenoyl lysophosphatidylethanolamine into mice at the concentration of 15˜150 μg/kg. 30 Min later, 100 ul of zymosan A(1 mg/ml) was treated thereto to induce inflammation in abdominal cavity. After administering 0.5% Evans blue, plasma leakage in peritoneal fluid was measured.

RAW 264.7 cells = experiment: LPS induced NO generation in RAW 264.7 cells (Griess reagent); format: cell-based
Text: Macrophages are known to play an important role in inflammatory response and host defense. When macrophages are activated by lipopolysaccharide (LPS), a huge amount of NO (nitric oxide) is generated, which is mediated by inducible nitric oxide synthase (iNOS).
Based on that, the present inventors observed how unsaturated fatty acid containing lysophosphatidylcholine (lysoPC) affected the generation of NO, the inflammation mediator, induced by LPS in RAW 264.7 cells. Particularly, RAW 264.7 cells (5×10^4/well) were pre-cultured with each polyunsaturated lysophosphatidylcholine; linoleoyl lysophosphatidylcholine, arachidonoyl lysophosphatidylcholine and docosahexaenoyl lysophosphatidylcholine [prepared by the co-treatment with diacyl phosphatidylcholine (Avanti Polar Lipids, Alabaster, Ala., USA) and phospholipase A2 (PLA2, Sigma-Aldrich Corp, St. Louis, Mo., USA) (Croset, M. et al., Biochem. J. 2000, 345, 61-67; Adachi, J. et al., Kobe. J. Med. Sci. 2006, 52, 127-140)] (0˜60 uM) at 37° C. for 2 hours. Then, LPS (1 μg/ml) was added thereto, followed by culture for 20 hours under the same conditions as the above. […] Then, OD540 was measured to measure NO generation (Green L C, et al., Anal Biochem. 1982 October; 126(1):131-8).

Q: How did the “inhibitory effect on zymosan induced plasma leakage” value ([1]; 15 μg/kg or higher, 2 hours before zymosan A) turn out when “17(S)-hydroperoxy-4,7,10,13,15,19-docosahexaenoyl lysophosphatidylcholine [17-HPDHA lysophosphatidylcholine]” was run?
A: significant

Q: And the “effectiveness in comparison with docosahexaenoyl lysophosphatidylcholine” value ([1]; 15~150 μg/kg)?
A: somewhat more effective than docosahexaenoyl lysophosphatidylcholine

Q: What about the “inhibition of zymosan induced plasma leakage, dose dependence” value ([1]; up to 150 μg/kg) of the same molecule?
A: dose-dependent

Q: What about the “inhibitory effect on plasma leakage (metabolite comparison)” value ([2]; 50 μg/kg, 30 minutes before zymosan A injection, compared to docosahexaenoyl lysophosphatidylcholine) of the same molecule?
A: a greater inhibitory effect

Q: For `CCCCC/C=C\C/C=C\CCCCCCCC(=O)OC[C@@H](O)COP(=O)([O-])OCC[N+](C)(C)C` [linoleoyl lysophosphatidylcholine, reference compound], which “inhibition of zymosan induced plasma leakage, dose dependence” value ([2]; i.v., up to 500 μg/kg) is on record?
A: did not show inhibitory effect

Q: And the “inhibitory effect on NO generation induced by LPS” value (RAW 264.7 cells; up to 60 uM)?
A: did not show any significant inhibitory effect

Q: For “arachidonoyl lysophosphatidylcholine [reference compound]”, which “reduction of zymosan induced plasma leakage” value (“reduction” for short) ([2]; 50 μg/kg i.v.) is on record?
A: reduced plasma leakage significantly

Q: What about the “reduction” value ([2]; 150 μg/kg i.v.) of the same molecule?
A: more peculiar

Q: What about the “reduction” value ([2]; 500 μg/kg i.v., versus 150 μg/kg) of the same molecule?
A: this effect was not increased any more

Q: What about the “inhibition of NO generation induced by LPS” value (RAW 264.7 cells; 60 uM) of the same molecule?
A: ≤ 20%

Q: For “docosahexaenoyl lysophosphatidylethanolamine”, which “inhibitory effect on zymosan A induced plasma leakage” value ([2]; i.v., 50 μg/kg or higher, 30 min before zymosan A) is on record?
A: significant inhibitory effect

Q: And the “inhibition of zymosan A induced plasma leakage, dose dependence” value ([2]; i.v., up to 150 μg/kg)?
A: inhibited zymosan A induced plasma leakage dose-dependently
